The source made the active and inactive calls. The calls are words filed in the database; no cut-off is given here.
Columns and labels:
[1] = Inhibition of quorum sensing system in Pseudomonas aeruginosa transfected with lasB-gfp
Pseudomonas aeruginosa = experiment: Inhibition of biofilm formation in Pseudomonas aeruginosa at 100 uM measured after 48 hrs relative to control; format: functional
Homo sapiens = species: Homo sapiens; experiment: Activation of protease (unknown origin); settings: filed as activator
[2] = Inhibition of quorum sensing system in Chromobacterium violaceum ATCC 31352 assessed as reduction in violacein production at 100 uM relative to control

| inhibition [1] | Activity (Homo sapiens) | IC50 [1] [µM] | inhibition [2] [%] | Structure (SMILES) | inhibition at 100 µM (Pseudomonas aeruginosa) [%] |
| --- | --- | --- | --- | --- | --- |
| Active |  |  |  | N#Cc1cc[n+]([O-])cc1 |  |
| Active |  |  |  | FC(F)c1cc(Oc2ccccc2)ccn1 |  |
| Active |  |  |  | FC(F)c1ccccn1 |  |
| Active |  |  |  | FC(F)c1nccc2ccccc12 |  |
| Active |  |  |  | FC(F)c1cc(Cc2ccc(Cl)cc2)ccn1 |  |
|  | Active | 27 | 59 | COC(=O)c1ccnc(C(F)F)c1 | 75 |
| Active |  |  |  | FC(F)c1ccc2ccccc2n1 |  |
| Active |  |  |  | FC(F)c1cc(-c2ccccc2)ccn1 |  |
| Active |  |  |  | COC(=O)c1ccncc1C(F)F |  |
| Active |  |  |  | FC(F)c1cccnc1 |  |
|  | Active | 19 | 66 | N#Cc1ccnc(C(F)F)c1 | 85 |
|  | Active | 33 | 37.5 | O=[N+]([O-])c1cc[n+]([O-])cc1 | 71 |
|  | Active | 35 | 57 | O=C(c1ccc(Cl)cc1)c1ccnc(C(F)F)c1 | 73 |
| Active |  |  |  | FC(F)c1ccncc1 |  |

Reference: ChEMBL document CHEMBL5126497, “2-Difluoromethylpyridine as a bioisosteric replacement of pyridine-N-oxide: the case of quorum sensing inhibitors” (RSC Med Chem, 2021)
